Assay results reported in paper PMC12670405, “Second-Generation AURKA-Targeting PROTACs: Structural Optimization toward in Vivo Degradation in Neuroblastoma” (Journal of Medicinal Chemistry, 2025).

Experiments:
Test in all cases: KINOMEscan scanMAX
Type in all cases: binding
Settings in all cases: read-out: Percent Control
[1] = target: T1, EPHB6 (Homo sapiens, UniProt O15197)
T1 construct: purchased Eurofins Discovery (DiscoverX KINOMEscan scanMAX)
Experimental: (§1) The kinome-wide binding assay was performed by Eurofins Discovery using the scanMAX screening platform. More information can be found on the Eurofins Discovery Web site.

[2] = target: T2, ABL1(M351T)-phosphorylated (Homo sapiens, UniProt P00519, M351T)
T2 construct: purchased Eurofins Discovery (DiscoverX KINOMEscan scanMAX)
Experimental: as §1

[3] = target: T3, NDR2 (Homo sapiens, UniProt Q9Y2H1)
T3 construct: purchased Eurofins Discovery (DiscoverX KINOMEscan scanMAX)
Experimental: as §1

[4] = target: T4, CAMK1G (Homo sapiens, UniProt Q96NX5)
T4 construct: purchased Eurofins Discovery (DiscoverX KINOMEscan scanMAX)
Experimental: as §1

[5] = target: T5, EPHB2 (Homo sapiens, UniProt P29323)
T5 construct: purchased Eurofins Discovery (DiscoverX KINOMEscan scanMAX)
Experimental: as §1

[6] = target: T6, TEC (Homo sapiens, UniProt P42680)
T6 construct: purchased Eurofins Discovery (DiscoverX KINOMEscan scanMAX)
Experimental: as §1

[7] = target: T7, FLT3(D835V) (Homo sapiens, UniProt P36888, D835V)
T7 construct: purchased Eurofins Discovery (DiscoverX KINOMEscan scanMAX)
Experimental: as §1

[8] = target: T8, MARK2 (Homo sapiens, UniProt Q7KZI7)
T8 construct: purchased Eurofins Discovery (DiscoverX KINOMEscan scanMAX)
Experimental: as §1

[9] = target: T9, TRKA (Homo sapiens, UniProt P04629)
T9 construct: purchased Eurofins Discovery (DiscoverX KINOMEscan scanMAX)
Experimental: as §1

[10] = target: T10, CLK4 (Homo sapiens, UniProt Q9HAZ1)
T10 construct: purchased Eurofins Discovery (DiscoverX KINOMEscan scanMAX)
Experimental: as §1

[11] = target: T11, BRSK1 (Homo sapiens, UniProt Q8TDC3)
T11 construct: purchased Eurofins Discovery (DiscoverX KINOMEscan scanMAX)
Experimental: as §1

[12] = target: T12, EGFR(S752-I759del) (Homo sapiens, UniProt P00533, DEL752-759)
T12 construct: purchased Eurofins Discovery (DiscoverX KINOMEscan scanMAX)
Experimental: as §1

[13] = target: T13, ACVR2A (Homo sapiens, UniProt P27037)
T13 construct: purchased Eurofins Discovery (DiscoverX KINOMEscan scanMAX)
Experimental: as §1

[14] = target: T14, SIK (Homo sapiens, UniProt P57059)
T14 construct: purchased Eurofins Discovery (DiscoverX KINOMEscan scanMAX)
Experimental: as §1

[15] = target: T15, MET(M1250T) (Homo sapiens, UniProt P08581, M1250T)
T15 construct: purchased Eurofins Discovery (DiscoverX KINOMEscan scanMAX)
Experimental: as §1

[16] = target: T16, CSNK1G2 (Homo sapiens, UniProt P78368)
T16 construct: purchased Eurofins Discovery (DiscoverX KINOMEscan scanMAX)
Experimental: as §1

[17] = target: T17, PRP4 (Homo sapiens, UniProt Q13523)
T17 construct: purchased Eurofins Discovery (DiscoverX KINOMEscan scanMAX)
Experimental: as §1

[18] = target: T18, NEK10 (Homo sapiens, UniProt Q6ZWH5)
T18 construct: purchased Eurofins Discovery (DiscoverX KINOMEscan scanMAX)
Experimental: as §1

[19] = target: T19, PIK3C2B (Homo sapiens, UniProt O00750)
T19 construct: purchased Eurofins Discovery (DiscoverX KINOMEscan scanMAX)
Experimental: as §1

[20] = target: T20, CAMK1D (Homo sapiens, UniProt Q8IU85)
T20 construct: purchased Eurofins Discovery (DiscoverX KINOMEscan scanMAX)
Experimental: as §1

[21] = target: T21, PIKFYVE (Homo sapiens, UniProt Q9Y2I7)
T21 construct: purchased Eurofins Discovery (DiscoverX KINOMEscan scanMAX)
Experimental: as §1

[22] = target: T22, RIPK1 (Homo sapiens, UniProt Q13546)
T22 construct: purchased Eurofins Discovery (DiscoverX KINOMEscan scanMAX)
Experimental: as §1

[23] = target: T23, PFCDPK1(P.falciparum) (Plasmodium falciparum, UniProt P62344)
T23 construct: purchased Eurofins Discovery (DiscoverX KINOMEscan scanMAX)
Experimental: as §1

[24] = target: T24, DMPK (Homo sapiens, UniProt Q09013)
T24 construct: purchased Eurofins Discovery (DiscoverX KINOMEscan scanMAX)
Experimental: as §1

[25] = target: T25, PIM2 (Homo sapiens, UniProt Q9P1W9)
T25 construct: purchased Eurofins Discovery (DiscoverX KINOMEscan scanMAX)
Experimental: as §1

[26] = target: T26, RPS6KA4(Kin.Dom.1-N-terminal) (Homo sapiens, UniProt O75676)
T26 construct: RPS6KA4(Kin.Dom.1-N-terminal); purchased Eurofins Discovery (DiscoverX KINOMEscan scanMAX)
Experimental: as §1

[27] = target: T27, SRMS (Homo sapiens, UniProt Q9H3Y6)
T27 construct: purchased Eurofins Discovery (DiscoverX KINOMEscan scanMAX)
Experimental: as §1

[28] = target: T28, HIPK3 (Homo sapiens, UniProt Q9H422)
T28 construct: purchased Eurofins Discovery (DiscoverX KINOMEscan scanMAX)
Experimental: as §1

[29] = target: T29, MST1 (Homo sapiens, UniProt Q13043)
T29 construct: purchased Eurofins Discovery (DiscoverX KINOMEscan scanMAX)
Experimental: as §1

[30] = target: T30, EGFR(L747-E749del, A750P) (Homo sapiens, UniProt P00533, A750P/DEL747-749)
T30 construct: purchased Eurofins Discovery (DiscoverX KINOMEscan scanMAX)
Experimental: as §1

[31] = target: T31, SgK110 (Homo sapiens, UniProt P0C264)
T31 construct: purchased Eurofins Discovery (DiscoverX KINOMEscan scanMAX)
Experimental: as §1

[32] = target: T32, FLT3(D835H) (Homo sapiens, UniProt P36888, D835H)
T32 construct: purchased Eurofins Discovery (DiscoverX KINOMEscan scanMAX)
Experimental: as §1

[33] = target: T33, MET (Homo sapiens, UniProt P08581)
T33 construct: purchased Eurofins Discovery (DiscoverX KINOMEscan scanMAX)
Experimental: as §1

T12 sequence (P00533 with tags, fused parts or gaps DEL752-759 limits assumed): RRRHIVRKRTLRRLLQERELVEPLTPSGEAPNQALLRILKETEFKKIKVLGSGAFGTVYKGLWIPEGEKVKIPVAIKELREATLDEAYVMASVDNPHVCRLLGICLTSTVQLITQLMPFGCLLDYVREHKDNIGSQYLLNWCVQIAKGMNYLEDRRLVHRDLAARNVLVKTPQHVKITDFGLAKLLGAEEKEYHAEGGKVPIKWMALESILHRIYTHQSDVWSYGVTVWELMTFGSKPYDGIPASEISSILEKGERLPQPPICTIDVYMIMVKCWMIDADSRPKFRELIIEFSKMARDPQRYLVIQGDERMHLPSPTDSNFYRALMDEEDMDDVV
T26 sequence (O75676 1-371 limits assumed): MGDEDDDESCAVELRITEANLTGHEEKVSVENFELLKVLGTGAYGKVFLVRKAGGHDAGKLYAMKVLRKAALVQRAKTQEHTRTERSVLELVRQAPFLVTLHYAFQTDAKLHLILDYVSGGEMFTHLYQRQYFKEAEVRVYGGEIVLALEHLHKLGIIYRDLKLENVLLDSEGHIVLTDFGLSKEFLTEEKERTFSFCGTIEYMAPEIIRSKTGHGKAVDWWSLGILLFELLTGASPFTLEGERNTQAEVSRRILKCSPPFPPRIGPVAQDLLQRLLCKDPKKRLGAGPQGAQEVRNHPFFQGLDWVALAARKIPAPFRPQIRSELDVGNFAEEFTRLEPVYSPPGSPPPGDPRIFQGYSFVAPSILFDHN
T24 sequence (Q09013 whole entry): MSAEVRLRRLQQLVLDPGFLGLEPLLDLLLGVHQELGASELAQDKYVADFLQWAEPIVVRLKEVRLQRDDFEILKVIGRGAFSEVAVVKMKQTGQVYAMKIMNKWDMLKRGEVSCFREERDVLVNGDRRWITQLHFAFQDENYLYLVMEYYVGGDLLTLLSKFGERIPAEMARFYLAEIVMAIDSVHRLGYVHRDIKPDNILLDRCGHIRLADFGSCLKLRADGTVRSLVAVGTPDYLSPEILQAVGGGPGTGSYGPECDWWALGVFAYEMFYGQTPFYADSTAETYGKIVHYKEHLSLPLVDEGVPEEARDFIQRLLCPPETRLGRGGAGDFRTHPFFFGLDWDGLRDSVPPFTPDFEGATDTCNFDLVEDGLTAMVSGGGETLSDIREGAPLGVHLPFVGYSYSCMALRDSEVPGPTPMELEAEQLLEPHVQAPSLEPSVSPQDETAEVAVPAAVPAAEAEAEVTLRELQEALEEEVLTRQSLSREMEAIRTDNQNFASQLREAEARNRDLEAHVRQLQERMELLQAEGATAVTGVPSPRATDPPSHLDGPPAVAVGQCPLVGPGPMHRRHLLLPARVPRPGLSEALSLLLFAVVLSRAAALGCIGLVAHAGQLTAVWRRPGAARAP
T29 sequence (Q13043 whole entry): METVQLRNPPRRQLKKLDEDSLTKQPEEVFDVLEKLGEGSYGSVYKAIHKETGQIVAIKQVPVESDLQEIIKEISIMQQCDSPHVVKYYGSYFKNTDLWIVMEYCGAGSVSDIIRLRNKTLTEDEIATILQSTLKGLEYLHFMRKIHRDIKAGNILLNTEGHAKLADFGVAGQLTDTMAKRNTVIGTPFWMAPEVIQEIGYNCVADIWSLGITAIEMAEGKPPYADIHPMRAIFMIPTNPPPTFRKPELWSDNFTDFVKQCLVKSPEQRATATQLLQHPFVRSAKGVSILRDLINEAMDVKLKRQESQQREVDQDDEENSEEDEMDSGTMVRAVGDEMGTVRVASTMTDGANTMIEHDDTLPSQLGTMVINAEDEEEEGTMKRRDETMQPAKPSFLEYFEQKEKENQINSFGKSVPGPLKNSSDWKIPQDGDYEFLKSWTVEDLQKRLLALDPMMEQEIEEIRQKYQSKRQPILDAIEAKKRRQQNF
T5 sequence (P29323 19-1055): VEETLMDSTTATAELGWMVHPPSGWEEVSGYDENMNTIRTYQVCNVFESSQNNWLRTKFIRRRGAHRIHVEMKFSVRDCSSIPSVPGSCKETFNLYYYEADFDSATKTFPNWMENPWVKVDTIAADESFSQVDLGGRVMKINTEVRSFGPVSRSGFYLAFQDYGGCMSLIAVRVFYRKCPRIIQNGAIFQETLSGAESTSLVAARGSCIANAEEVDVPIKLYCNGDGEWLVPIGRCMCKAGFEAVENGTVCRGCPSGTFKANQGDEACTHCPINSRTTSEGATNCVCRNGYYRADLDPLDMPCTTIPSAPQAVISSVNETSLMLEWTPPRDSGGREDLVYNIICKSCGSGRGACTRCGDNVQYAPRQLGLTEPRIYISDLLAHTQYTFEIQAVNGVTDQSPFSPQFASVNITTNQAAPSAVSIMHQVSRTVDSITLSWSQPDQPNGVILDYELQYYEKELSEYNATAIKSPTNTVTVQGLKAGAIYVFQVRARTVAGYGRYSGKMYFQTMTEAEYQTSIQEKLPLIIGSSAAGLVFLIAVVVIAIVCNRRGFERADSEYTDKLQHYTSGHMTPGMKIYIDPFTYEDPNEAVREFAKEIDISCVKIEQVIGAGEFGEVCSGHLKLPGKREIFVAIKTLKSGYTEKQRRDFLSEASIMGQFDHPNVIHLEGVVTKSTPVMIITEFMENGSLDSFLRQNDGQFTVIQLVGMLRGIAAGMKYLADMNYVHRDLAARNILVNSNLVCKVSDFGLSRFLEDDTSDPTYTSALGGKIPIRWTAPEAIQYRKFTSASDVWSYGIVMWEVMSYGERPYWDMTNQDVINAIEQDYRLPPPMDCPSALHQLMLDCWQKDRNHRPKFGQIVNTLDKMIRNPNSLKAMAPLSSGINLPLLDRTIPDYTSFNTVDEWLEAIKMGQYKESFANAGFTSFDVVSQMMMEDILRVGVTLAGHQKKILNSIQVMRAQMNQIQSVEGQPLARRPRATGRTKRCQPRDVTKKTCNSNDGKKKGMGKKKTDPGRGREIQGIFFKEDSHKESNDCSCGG
T15 sequence (P08581 25-1390 M1250T): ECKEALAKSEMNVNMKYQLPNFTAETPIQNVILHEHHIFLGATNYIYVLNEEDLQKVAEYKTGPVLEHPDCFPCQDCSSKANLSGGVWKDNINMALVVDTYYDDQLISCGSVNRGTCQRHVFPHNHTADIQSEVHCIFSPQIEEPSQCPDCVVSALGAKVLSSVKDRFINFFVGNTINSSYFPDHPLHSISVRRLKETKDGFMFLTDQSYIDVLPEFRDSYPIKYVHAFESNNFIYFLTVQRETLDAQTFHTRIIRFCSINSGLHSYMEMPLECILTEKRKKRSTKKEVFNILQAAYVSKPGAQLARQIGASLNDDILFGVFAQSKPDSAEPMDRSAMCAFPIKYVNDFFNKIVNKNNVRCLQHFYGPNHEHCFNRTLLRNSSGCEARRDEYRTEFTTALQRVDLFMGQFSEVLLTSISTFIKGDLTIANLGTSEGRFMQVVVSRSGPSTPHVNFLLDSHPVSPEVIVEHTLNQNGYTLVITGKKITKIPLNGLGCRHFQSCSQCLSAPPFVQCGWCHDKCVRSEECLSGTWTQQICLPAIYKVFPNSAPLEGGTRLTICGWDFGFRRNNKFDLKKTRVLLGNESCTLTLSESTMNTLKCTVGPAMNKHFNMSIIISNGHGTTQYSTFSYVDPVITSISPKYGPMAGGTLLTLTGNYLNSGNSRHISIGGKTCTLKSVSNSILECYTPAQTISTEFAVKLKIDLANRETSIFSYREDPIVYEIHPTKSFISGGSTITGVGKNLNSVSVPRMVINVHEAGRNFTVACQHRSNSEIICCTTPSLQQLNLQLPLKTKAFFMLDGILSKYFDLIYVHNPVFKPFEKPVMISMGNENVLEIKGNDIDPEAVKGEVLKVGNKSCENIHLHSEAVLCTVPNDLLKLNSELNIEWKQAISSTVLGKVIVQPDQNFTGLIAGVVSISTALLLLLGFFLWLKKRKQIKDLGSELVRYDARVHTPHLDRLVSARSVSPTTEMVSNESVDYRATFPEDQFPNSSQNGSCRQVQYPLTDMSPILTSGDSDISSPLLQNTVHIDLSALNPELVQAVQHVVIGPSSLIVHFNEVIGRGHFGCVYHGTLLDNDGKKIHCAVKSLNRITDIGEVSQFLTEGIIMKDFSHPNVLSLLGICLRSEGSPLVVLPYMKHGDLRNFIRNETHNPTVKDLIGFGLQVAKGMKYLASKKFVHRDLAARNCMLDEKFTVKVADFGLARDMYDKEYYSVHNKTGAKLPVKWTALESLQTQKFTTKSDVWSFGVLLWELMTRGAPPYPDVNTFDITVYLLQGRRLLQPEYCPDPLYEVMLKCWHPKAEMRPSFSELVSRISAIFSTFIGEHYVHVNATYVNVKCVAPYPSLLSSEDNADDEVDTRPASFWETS
T9 sequence (P04629 33-796): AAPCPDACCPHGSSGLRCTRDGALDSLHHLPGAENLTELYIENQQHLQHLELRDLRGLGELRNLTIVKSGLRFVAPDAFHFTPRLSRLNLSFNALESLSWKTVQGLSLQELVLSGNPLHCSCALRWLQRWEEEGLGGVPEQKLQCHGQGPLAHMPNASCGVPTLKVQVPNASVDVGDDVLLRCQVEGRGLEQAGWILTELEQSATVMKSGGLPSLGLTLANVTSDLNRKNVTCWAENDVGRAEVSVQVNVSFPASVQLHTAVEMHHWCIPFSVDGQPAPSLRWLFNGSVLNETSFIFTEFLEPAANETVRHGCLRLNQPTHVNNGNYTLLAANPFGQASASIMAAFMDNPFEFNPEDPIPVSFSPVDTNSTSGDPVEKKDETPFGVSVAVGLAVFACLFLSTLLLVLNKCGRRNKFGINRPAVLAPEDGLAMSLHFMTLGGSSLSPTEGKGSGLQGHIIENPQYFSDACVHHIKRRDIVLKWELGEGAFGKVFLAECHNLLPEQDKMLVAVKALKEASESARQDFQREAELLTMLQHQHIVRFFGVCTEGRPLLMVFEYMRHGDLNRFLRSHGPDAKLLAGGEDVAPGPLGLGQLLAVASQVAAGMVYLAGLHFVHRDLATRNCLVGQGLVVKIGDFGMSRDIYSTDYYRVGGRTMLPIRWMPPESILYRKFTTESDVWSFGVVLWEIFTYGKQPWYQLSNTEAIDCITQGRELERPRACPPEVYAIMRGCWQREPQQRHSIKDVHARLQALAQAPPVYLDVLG

## Cc1cc(Nc2ccc(F)c(CC3(C(=O)N4CCC(F)(CN5CCN(c6ccc(N7CCC(=O)NC7=O)cn6)CC5)CC4)CCN(Cc4cccc(Cl)c4F)CC3)n2)n[nH]1 [SK5527]
[1]; 100 nM
  remaining binding at 0.1 µM: 93%
[1]; 1000 nM
  remaining binding at 1 µM: 85%
[2]; 100 nM
  remaining binding at 0.1 µM: 70%
[2]; 1000 nM
  remaining binding at 1 µM: 34%
[3]; 100 nM
  remaining binding at 0.1 µM: 100%
[3]; 1000 nM
  remaining binding at 1 µM: 91%
[4]; 100 nM
  remaining binding at 0.1 µM: 100%
[4]; 1000 nM
  remaining binding at 1 µM: 92%
[5]; 100 nM
  remaining binding at 0.1 µM: 74%
[5]; 1000 nM
  remaining binding at 1 µM: 95%
[6]; 100 nM
  remaining binding at 0.1 µM: 91%
[6]; 1000 nM
  remaining binding at 1 µM: 69%
[7]; 100 nM
  remaining binding at 0.1 µM: 100%
[7]; 1000 nM
  remaining binding at 1 µM: 41%
[8]; 100 nM
  remaining binding at 0.1 µM: 91%
[8]; 1000 nM
  remaining binding at 1 µM: 62%
[9]; 100 nM
  remaining binding at 0.1 µM: 32%
[9]; 1000 nM
  remaining binding at 1 µM: 8.3%
[10]; 100 nM
  remaining binding at 0.1 µM: 85%
[10]; 1000 nM
  remaining binding at 1 µM: 100%
[11]; 100 nM
  remaining binding at 0.1 µM: 100%
[11]; 1000 nM
  remaining binding at 1 µM: 98%
[12]; 100 nM
  remaining binding at 0.1 µM: 98%
[12]; 1000 nM
  remaining binding at 1 µM: 100%
[13]; 100 nM
  remaining binding at 0.1 µM: 100%
[13]; 1000 nM
  remaining binding at 1 µM: 98%
[14]; 100 nM
  remaining binding at 0.1 µM: 93%
[14]; 1000 nM
  remaining binding at 1 µM: 59%
[15]; 100 nM
  remaining binding at 0.1 µM: 85%
[15]; 1000 nM
  remaining binding at 1 µM: 80%
[16]; 100 nM
  remaining binding at 0.1 µM: 98%
[16]; 1000 nM
  remaining binding at 1 µM: 93%
[17]; 100 nM
  remaining binding at 0.1 µM: 100%
[17]; 1000 nM
  remaining binding at 1 µM: 74%
[18]; 100 nM
  remaining binding at 0.1 µM: 100%
[18]; 1000 nM
  remaining binding at 1 µM: 100%
[19]; 100 nM
  remaining binding at 0.1 µM: 99%
[19]; 1000 nM
  remaining binding at 1 µM: 91%
[20]; 100 nM
  remaining binding at 0.1 µM: 100%
[20]; 1000 nM
  remaining binding at 1 µM: 100%
[21]; 100 nM
  remaining binding at 0.1 µM: 100%
[21]; 1000 nM
  remaining binding at 1 µM: 100%
[22]; 100 nM
  remaining binding at 0.1 µM: 100%
[22]; 1000 nM
  remaining binding at 1 µM: 86%
[23]; 100 nM
  remaining binding at 0.1 µM: 87%
[23]; 1000 nM
  remaining binding at 1 µM: 81%
[24]; 100 nM
  remaining binding at 0.1 µM: 88%
[24]; 1000 nM
  remaining binding at 1 µM: 90%
[25]; 100 nM
  remaining binding at 0.1 µM: 60%
[25]; 1000 nM
  remaining binding at 1 µM: 71%
[26]; 100 nM
  remaining binding at 0.1 µM: 90%
[26]; 1000 nM
  remaining binding at 1 µM: 95%
[27]; 100 nM
  remaining binding at 0.1 µM: 90%
[27]; 1000 nM
  remaining binding at 1 µM: 82%
[28]; 100 nM
  remaining binding at 0.1 µM: 100%
[28]; 1000 nM
  remaining binding at 1 µM: 66%
[29]; 100 nM
  remaining binding at 0.1 µM: 100%
[29]; 1000 nM
  remaining binding at 1 µM: 100%
[30]; 100 nM
  remaining binding at 0.1 µM: 100%
[30]; 1000 nM
  remaining binding at 1 µM: 97%
[31]; 100 nM
  remaining binding at 0.1 µM: 100%
[31]; 1000 nM
  remaining binding at 1 µM: 89%
[32]; 100 nM
  remaining binding at 0.1 µM: 89%
[32]; 1000 nM
  remaining binding at 1 µM: 54%
[33]; 100 nM
  remaining binding at 0.1 µM: 94%
[33]; 1000 nM
  remaining binding at 1 µM: 81%
